Columns and labels:
Assay type in all cases: in vivo
[1] = system: Galium (catchweed bedstraw, Galium aparine); assay: Test A postemergence; settings: Galium, post-emergence, 240 h, postemergence; for pest or weed control at 125 g/ha: 125 g ai/ha, visual injury vs untreated controls after approx. 10 d, 0 = no effect, 100 = complete control, read-out: Galium plant response rating (0 to 100 scale); for pest or weed control at 500 g/ha: 500 g ai/ha, 0 to 100 scale, 0 is no effect, 100 is complete control, read-out: Galium plant response rating
Procedure, shortened: (§1)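 Visual injury, scored on a 0–100 scale relative to untreated controls, was recorded about 10 d after application. Treatments were a preemergence soil spray over planted seeds or a postemergence spray on plants at the one- to two-leaf stage, 2 to 10 cm tall, all in loam soil–sand blend in the greenhouse.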

Kochia (Kochia scoparia) = assay: Test A postemergence; settings: Bassia scoparia, post-emergence, 240 h, postemergence; for pest or weed control at 125 g/ha: 125 g ai/ha, visual injury vs untreated controls after approx. 10 d, 0 = no effect, 100 = complete control, read-out: Kochia plant response rating (0 to 100 scale); for pest or weed control at 500 g/ha: 500 g ai/ha, 0 to 100 scale, 0 is no effect, 100 is complete control, read-out: Kochia plant response rating
Procedure, shortened: as §1

[2] = system: barnyardgrass (Echinochloa crus-galli); assay: Test A postemergence; settings: Echinochloa crus-galli, post-emergence, 240 h, postemergence; for pest or weed control at 125 g/ha: 125 g ai/ha, visual injury vs untreated controls after approx. 10 d, 0 = no effect, 100 = complete control, read-out: Barnyardgrass plant response rating (0 to 100 scale); for pest or weed control at 500 g/ha: 500 g ai/ha, 0 to 100 scale, 0 is no effect, 100 is complete control, read-out: Barnyardgrass plant response rating
Procedure, shortened: as §1

[3] = system: blackgrass (Alopecurus myosuroides); assay: Test A postemergence; settings: Alopecurus myosuroides, post-emergence, 240 h, postemergence; for pest or weed control at 125 g/ha: 125 g ai/ha, visual injury vs untreated controls after approx. 10 d, 0 = no effect, 100 = complete control, read-out: Blackgrass plant response rating (0 to 100 scale); for pest or weed control at 500 g/ha: 500 g ai/ha, 0 to 100 scale, 0 is no effect, 100 is complete control, read-out: Blackgrass plant response rating
Procedure, shortened: as §1

corn (Zea mays) = assay: Test A postemergence; settings: Zea mays, post-emergence, 240 h, postemergence; for plant injury at 125 g/ha: 125 g ai/ha, visual injury vs untreated controls after approx. 10 d, 0 = no effect, 100 = complete control, read-out: Corn plant response rating (0 to 100 scale); for plant injury at 500 g/ha: 500 g ai/ha, 0 to 100 scale, 0 is no effect, 100 is complete control, read-out: Corn plant response rating
Procedure, shortened: as §1

[4] = system: giant foxtail (Setaria faberii); assay: Test A postemergence; settings: Setaria faberi, post-emergence, 240 h, postemergence; for pest or weed control at 125 g/ha: 125 g ai/ha, visual injury vs untreated controls after approx. 10 d, 0 = no effect, 100 = complete control, read-out: Foxtail, Giant plant response rating (0 to 100 scale); for pest or weed control at 500 g/ha: 500 g ai/ha, 0 to 100 scale, 0 is no effect, 100 is complete control, read-out: Foxtail, Giant plant response rating
Procedure, shortened: as §1

[5] = system: pigweed (Amaranthus retroflexus); assay: Test A postemergence; settings: Amaranthus retroflexus, post-emergence, 240 h, postemergence; for pest or weed control at 125 g/ha: 125 g ai/ha, visual injury vs untreated controls after approx. 10 d, 0 = no effect, 100 = complete control, read-out: Pigweed plant response rating (0 to 100 scale); for pest or weed control at 500 g/ha: 500 g ai/ha, 0 to 100 scale, 0 is no effect, 100 is complete control, read-out: Pigweed plant response rating
Procedure, shortened: as §1

[6] = system: ragweed (common ragweed, Ambrosia elatior); assay: Test A postemergence; settings: Ambrosia artemisiifolia, post-emergence, 240 h, postemergence; for pest or weed control at 125 g/ha: 125 g ai/ha, visual injury vs untreated controls after approx. 10 d, 0 = no effect, 100 = complete control, read-out: Ragweed plant response rating (0 to 100 scale); for pest or weed control at 500 g/ha: 500 g ai/ha, 0 to 100 scale, 0 is no effect, 100 is complete control, read-out: Ragweed plant response rating
Procedure, shortened: as §1

[7] = system: ryegrass, Italian (Italian ryegrass, Lolium multiflorum); assay: Test A postemergence; settings: Lolium multiflorum, post-emergence, 240 h, postemergence; for pest or weed control at 125 g/ha: 125 g ai/ha, visual injury vs untreated controls after approx. 10 d, 0 = no effect, 100 = complete control, read-out: Ryegrass, Italian plant response rating (0 to 100 scale); for pest or weed control at 500 g/ha: 500 g ai/ha, 0 to 100 scale, 0 is no effect, 100 is complete control, read-out: Ryegrass, Italian plant response rating
Procedure, shortened: as §1

[8] = system: wheat (Triticum aestivum); assay: Test A postemergence; settings: Triticum aestivum, post-emergence, 240 h, postemergence; for plant injury at 125 g/ha: 125 g ai/ha, visual injury vs untreated controls after approx. 10 d, 0 = no effect, 100 = complete control, read-out: Wheat plant response rating (0 to 100 scale); for plant injury at 500 g/ha: 500 g ai/ha, 0 to 100 scale, 0 is no effect, 100 is complete control, read-out: Wheat plant response rating
Procedure, shortened: as §1

[9] = system: barnyardgrass (Echinochloa crus-galli); assay: Test B flooded paddy test; settings: Echinochloa crus-galli, 250 g ai/ha, Flood; 0 to 100 scale where 0 is no effect and 100 is complete control; read-out: Barnyardgrass plant response rating
Procedure, shortened: (§2)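 Compound goes directly into floodwater once pots are flooded 3 cm above soil, targeting plants at two leaves; the water depth is then held for the test duration. Plants sit 13–15 d in a greenhouse and are rated visually, 100 denoting complete control.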

[10] = system: ducksalad (Heteranthera limosa); assay: Test B flooded paddy test; settings: Heteranthera limosa, 250 g ai/ha, Flood; 0 to 100 scale where 0 is no effect and 100 is complete control; read-out: Ducksalad plant response rating
Procedure, shortened: as §2

rice (Oryra sativa) = assay: Test B flooded paddy test; settings: Oryza sativa, 250 g ai/ha, Flood; 0 to 100 scale where 0 is no effect and 100 is complete control; read-out: Rice plant response rating
Procedure, shortened: as §2

[11] = system: sedge, umbrella (small-flower umbrella sedge, Cyperus difformis); assay: Test B flooded paddy test; settings: Cyperus difformis, 250 g ai/ha, Flood; 0 to 100 scale where 0 is no effect and 100 is complete control; read-out: Sedge, Umbrella plant response rating
Procedure, shortened: as §2

Row | Structure (SMILES) | pest or weed control at 125 g/ha [1] | pest or weed control at 500 g/ha [1] | pest or weed control at 125 g/ha (Kochia (Kochia scoparia)) | pest or weed control at 500 g/ha (Kochia (Kochia scoparia)) | pest or weed control at 125 g/ha [2] | pest or weed control at 500 g/ha [2] | pest or weed control at 125 g/ha [3] | pest or weed control at 500 g/ha [3] | plant injury at 125 g/ha (corn (Zea mays)) | plant injury at 500 g/ha (corn (Zea mays)) | pest or weed control at 125 g/ha [4] | pest or weed control at 500 g/ha [4] | pest or weed control at 125 g/ha [5] | pest or weed control at 500 g/ha [5] | pest or weed control at 125 g/ha [6] | pest or weed control at 500 g/ha [6] | pest or weed control at 125 g/ha [7] | pest or weed control at 500 g/ha [7] | plant injury at 125 g/ha [8] | pest or weed control at 250 g/ha [9] | further results
1 | Cc1c(F)cccc1NC(=O)[C@H]1C(=O)N(C)C[C@@H]1c1ccc(OC(F)F)cc1 [Compound 1213] | 50% | 60% | 50% | 60% | 100% | 100% | 20% | 40% | 50% | 80% | 90% | 90% | 0% | 0% | 0% | 0% | 0% | 50% | 40% | 70% | plant injury at 500 g/ha [8]: 50%; pest or weed control at 250 g/ha [10]: 100%; pest or weed control at 250 g/ha (rice (Oryra sativa)): 20%; pest or weed control at 250 g/ha [11]: 0%
2 | CN1C[C@H](c2cc(F)cc(C(F)(F)F)c2)[C@@H](C(=O)Nc2cccc(F)c2F)C1=O [Compound 1214] | 60% | 60% | 60% | 80% | 90% | 90% | 80% | 80% | 80% | 90% | 90% | 90% | 30% | 60% | 0% | 30% | 60% | 80% | 70% | 70% | plant injury at 500 g/ha [8]: 80%; pest or weed control at 250 g/ha [10]: 100%; pest or weed control at 250 g/ha (rice (Oryra sativa)): 15%; pest or weed control at 250 g/ha [11]: 60%
3 | CN1C[C@H](c2ccc(F)c(Br)c2)[C@@H](C(=O)Nc2cccc(F)c2F)C1=O [Compound 1234] | 50% | 60% | 40% | 50% | 90% | 90% | 30% | 60% | 80% | 100% | 80% | 90% | 20% | 50% | 30% | 30% | 40% | 70% | 40% | 90% | pest or weed control at 250 g/ha [10]: 100%; pest or weed control at 250 g/ha (rice (Oryra sativa)): 75%; pest or weed control at 250 g/ha [11]: 0%
4 | CN1C[C@H](c2ccc(C(F)(F)F)cc2)[C@@H](C(=O)Nc2cccc(Cl)c2F)C1=O [Compound 1238] | 20% | 50% | 30% | 50% | 50% | 80% | 30% | 50% | 20% | 40% | 60% | 80% | 0% | 30% | 0% | 20% | 20% | 60% | 0% | 0% | pest or weed control at 250 g/ha [10]: 0%; pest or weed control at 250 g/ha (rice (Oryra sativa)): 0%; pest or weed control at 250 g/ha [11]: 0%
5 | O=C1NC[C@H](c2ccc(C(F)(F)F)cc2)C1C(=O)Nc1ccccc1CO (stereo partly drawn) [Compound 1242] | 0% | 20% | 0% | 0% | 20% | 40% | 0% | 0% | 0% | 0% | 20% | 50% | 0% | 0% | 0% | 0% | 0% | 0% | 0% | 0% | pest or weed control at 250 g/ha [10]: 75%; pest or weed control at 250 g/ha (rice (Oryra sativa)): 0%; pest or weed control at 250 g/ha [11]: 0%
